Data reported in ChEMBL document CHEMBL4428094, “Insights into the structure-activity relationship of the anticancer compound ZJ-101, a derivative of marine natural product superstolide A: A role played by the lactone moiety” (Bioorg Med Chem Lett, 2016).

What was measured:
Assay type in all cases: functional, cell-based
[1] = test system: HeLa; test: Antiproliferative activity against human HeLa cells assessed as reduction in cell viability by Alamar blue assay
[2] = test system: SF-295; test: Antiproliferative activity against human SF295 cells assessed as reduction in cell viability by Alamar blue assay
[3] = test system: HCT-116; test: Antiproliferative activity against human HCT116 cells assessed as reduction in cell viability by Alamar blue assay
[4] = test system: MDA-MB-231; test: Antiproliferative activity against human MDA-MB-231 cells assessed as reduction in cell viability by Alamar blue assay
[5] = test system: MCF7; test: Antiproliferative activity against human MCF7 cells assessed as reduction in cell viability by Alamar blue assay

IC50 [4] | IC50 [5] | Structure (SMILES) | IC50 [1] | IC50 [2] | IC50 [3]
 |  | CC(=O)N[C@H](C)[C@@H](O)[C@@H](C)[C@@H]1OC(=O)/C=C/C=C(C)\C=C\[C@]2(C)CCC=C[C@@H]2/C=C(C)/C=C/[C@H]1C | 75.4 nM | 63.5 nM | 94 nM
584 nM | 448 nM | CC(=O)N[C@H](C)[C@@H](O)[C@@H](C)[C@@H]1NC(=O)/C=C/C=C(C)\C=C\[C@]2(C)CCC=C[C@@H]2/C=C(C)/C=C/[C@H]1C | 597 nM | 716 nM | 746 nM
